Laboratory results taken from ChEMBL document CHEMBL1201862, “PubChem BioAssay data set” (2004).
Calls of active or inactive are those of the source.

How the values were obtained:
[1] = intracellular Trypanosoma cruzi inhibitors in host cells – cell-based, plate reader, cherry-pick samples, set 3, dose response (AID 651818); format: functional;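 note: compounds incubated with infected cells for about four days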
[2] = molecular target: T1, Calpain-2 catalytic subunit (Sus scrofa, UniProt P43367); assay: m-calpain protease blockers, concentration series – biochemical, fluorogenic peptide substrate, dose response (AID 1420); format: functional
T1 sequence (P43367 whole entry): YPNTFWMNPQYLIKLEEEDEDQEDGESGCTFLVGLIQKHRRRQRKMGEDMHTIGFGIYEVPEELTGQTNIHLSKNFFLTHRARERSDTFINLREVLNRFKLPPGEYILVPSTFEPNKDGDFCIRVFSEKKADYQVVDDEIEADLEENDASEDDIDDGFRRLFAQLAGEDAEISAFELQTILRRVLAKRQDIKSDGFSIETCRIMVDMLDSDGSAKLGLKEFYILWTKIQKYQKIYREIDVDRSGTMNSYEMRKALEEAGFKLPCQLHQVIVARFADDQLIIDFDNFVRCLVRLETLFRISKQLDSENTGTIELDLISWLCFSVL

[3] = molecular target: Luciferin 4-monooxygenase (Photinus pyralis, UniProt P08659); assay: inhibition of purified Photinus pyralis luciferase – biochemical, luminescence, dose response (AID 1891)
Chain of Luciferin 4-monooxygenase (P08659 whole entry): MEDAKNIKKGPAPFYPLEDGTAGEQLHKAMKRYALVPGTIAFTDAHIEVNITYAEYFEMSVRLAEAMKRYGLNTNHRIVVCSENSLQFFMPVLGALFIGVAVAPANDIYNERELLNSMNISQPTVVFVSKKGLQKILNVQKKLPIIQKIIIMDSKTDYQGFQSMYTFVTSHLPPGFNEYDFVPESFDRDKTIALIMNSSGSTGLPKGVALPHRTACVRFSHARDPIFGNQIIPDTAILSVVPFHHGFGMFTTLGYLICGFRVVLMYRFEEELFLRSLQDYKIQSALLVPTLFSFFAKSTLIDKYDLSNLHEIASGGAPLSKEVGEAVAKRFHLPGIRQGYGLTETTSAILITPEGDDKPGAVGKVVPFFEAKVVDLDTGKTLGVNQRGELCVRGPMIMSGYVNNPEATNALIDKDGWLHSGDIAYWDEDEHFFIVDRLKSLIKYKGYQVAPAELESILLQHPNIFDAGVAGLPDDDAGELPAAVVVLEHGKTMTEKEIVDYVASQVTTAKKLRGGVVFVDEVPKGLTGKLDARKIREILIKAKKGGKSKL

[4] = Luminescence Cell-Based Dose Confirmation HTS to Identify Inhibitors of Platelet Dense Granule Release. [Related pubchem assays: 1663 (Primary HTS), 1678 (Summary of Project)]; format: functional
[5] = molecular target: T2, Short transient receptor potential channel 4 (Mus musculus, UniProt Q9QUQ5); assay: calcium entry via TRPC4 opening agents – cell-based, HEK293 TRPC4/mu-opioid, Fluo-4 calcium, dose response (AID 434937); format: functional
T2 sequence (Q9QUQ5 whole entry): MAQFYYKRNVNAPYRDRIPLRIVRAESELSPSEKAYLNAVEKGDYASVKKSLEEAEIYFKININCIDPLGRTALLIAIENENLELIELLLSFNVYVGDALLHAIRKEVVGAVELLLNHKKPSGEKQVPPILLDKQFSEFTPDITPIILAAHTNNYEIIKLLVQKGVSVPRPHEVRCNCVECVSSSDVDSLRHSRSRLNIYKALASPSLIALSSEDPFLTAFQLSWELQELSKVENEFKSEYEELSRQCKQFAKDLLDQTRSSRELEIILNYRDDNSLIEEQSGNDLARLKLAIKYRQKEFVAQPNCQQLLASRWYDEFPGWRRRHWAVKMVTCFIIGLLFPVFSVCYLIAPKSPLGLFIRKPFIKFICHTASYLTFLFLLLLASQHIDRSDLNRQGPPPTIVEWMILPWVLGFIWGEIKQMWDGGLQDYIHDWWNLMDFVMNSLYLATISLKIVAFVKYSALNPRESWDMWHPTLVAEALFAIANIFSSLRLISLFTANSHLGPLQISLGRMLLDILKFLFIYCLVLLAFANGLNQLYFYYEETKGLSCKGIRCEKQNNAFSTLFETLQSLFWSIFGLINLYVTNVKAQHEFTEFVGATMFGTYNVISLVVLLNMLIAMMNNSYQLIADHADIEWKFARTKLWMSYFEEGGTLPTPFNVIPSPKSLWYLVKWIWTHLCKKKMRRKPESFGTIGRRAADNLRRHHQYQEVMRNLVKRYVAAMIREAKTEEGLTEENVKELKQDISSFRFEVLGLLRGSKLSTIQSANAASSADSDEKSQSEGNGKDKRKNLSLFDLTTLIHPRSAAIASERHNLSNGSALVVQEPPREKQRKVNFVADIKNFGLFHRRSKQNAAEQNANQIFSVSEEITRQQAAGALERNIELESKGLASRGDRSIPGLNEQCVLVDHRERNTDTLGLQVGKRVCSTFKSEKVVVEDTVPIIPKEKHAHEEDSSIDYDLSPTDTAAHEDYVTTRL

[6] = Luminescence Cell-Based Dose Retest to Confirm Inhibitors of Cancer Stem Cells. [Related pubchem assays (depositor defined):AID2717, AID2721]; format: functional; details: Homo sapiens
Aminopeptidase N = molecular target: T3, Aminopeptidase N (Plasmodium falciparum FcB1/Columbia, UniProt O96935); assay: malaria alanyl aminopeptidase activity blockers – biochemical, fluorogenic H-Leu-NHMec substrate, 1536-well (AID 1445); set-up: species or system Plasmodium falciparum 3D7, 3D7
T3 sequence (O96935 whole entry): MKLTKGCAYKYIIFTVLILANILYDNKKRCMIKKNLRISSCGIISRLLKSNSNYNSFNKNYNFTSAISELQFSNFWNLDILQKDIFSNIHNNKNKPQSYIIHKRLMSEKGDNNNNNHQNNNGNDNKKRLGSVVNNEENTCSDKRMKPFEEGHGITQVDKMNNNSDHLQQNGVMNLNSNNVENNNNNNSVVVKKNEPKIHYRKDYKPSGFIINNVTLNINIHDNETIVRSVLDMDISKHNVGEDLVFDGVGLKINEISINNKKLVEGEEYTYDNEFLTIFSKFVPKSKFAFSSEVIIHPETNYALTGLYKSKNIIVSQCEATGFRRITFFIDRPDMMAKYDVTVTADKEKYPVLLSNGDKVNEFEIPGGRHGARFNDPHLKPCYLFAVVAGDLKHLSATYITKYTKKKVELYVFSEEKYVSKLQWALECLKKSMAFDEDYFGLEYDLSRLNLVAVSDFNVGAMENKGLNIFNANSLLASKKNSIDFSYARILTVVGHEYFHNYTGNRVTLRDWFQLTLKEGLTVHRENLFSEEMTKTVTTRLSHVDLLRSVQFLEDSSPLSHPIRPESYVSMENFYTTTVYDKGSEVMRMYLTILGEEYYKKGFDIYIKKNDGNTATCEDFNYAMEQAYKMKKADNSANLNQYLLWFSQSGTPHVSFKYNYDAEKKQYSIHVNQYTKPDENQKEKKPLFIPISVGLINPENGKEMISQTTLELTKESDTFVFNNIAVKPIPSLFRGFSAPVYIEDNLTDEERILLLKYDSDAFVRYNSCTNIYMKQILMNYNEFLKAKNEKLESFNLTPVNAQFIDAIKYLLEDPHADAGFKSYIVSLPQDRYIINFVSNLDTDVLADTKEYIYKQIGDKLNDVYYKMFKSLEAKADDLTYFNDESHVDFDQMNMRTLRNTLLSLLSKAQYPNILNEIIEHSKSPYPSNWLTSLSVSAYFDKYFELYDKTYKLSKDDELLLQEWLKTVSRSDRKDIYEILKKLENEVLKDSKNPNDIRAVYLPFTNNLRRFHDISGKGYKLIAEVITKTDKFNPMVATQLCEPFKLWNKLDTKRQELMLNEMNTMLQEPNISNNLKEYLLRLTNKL

Genome polyprotein = Genome polyprotein (dengue virus type 2, UniProt P29990); assay: flavivirus cap methylation enzyme inhibition – biochemical, confirmation dose response, primary screen (AID 588689); format: functional
Chain of Genome polyprotein (P29990 2492-3391 limits assumed): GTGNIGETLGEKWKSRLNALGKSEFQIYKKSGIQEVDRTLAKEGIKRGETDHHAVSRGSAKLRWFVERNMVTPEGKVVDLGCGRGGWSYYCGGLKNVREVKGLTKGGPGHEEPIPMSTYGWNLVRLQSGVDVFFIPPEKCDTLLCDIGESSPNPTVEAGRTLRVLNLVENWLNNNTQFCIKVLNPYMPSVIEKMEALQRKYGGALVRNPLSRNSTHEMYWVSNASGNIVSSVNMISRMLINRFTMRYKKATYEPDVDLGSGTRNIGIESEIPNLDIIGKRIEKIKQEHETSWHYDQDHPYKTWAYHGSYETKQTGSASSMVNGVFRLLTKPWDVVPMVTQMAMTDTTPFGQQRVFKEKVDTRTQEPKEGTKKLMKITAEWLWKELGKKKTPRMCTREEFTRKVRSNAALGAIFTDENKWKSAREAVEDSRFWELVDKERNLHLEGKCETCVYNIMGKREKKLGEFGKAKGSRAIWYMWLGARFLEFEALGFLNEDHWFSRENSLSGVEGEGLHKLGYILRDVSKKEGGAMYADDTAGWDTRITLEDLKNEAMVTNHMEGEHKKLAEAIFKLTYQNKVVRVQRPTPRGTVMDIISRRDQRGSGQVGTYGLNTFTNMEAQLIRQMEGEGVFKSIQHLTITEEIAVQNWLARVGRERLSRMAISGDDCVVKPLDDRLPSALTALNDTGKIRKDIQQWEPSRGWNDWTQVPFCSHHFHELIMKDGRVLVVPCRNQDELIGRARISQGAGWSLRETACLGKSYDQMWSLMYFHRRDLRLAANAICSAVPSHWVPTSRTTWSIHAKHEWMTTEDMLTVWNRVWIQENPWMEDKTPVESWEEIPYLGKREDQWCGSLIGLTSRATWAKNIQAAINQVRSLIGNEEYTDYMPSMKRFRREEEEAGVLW

[7] = molecular target: T4, RNA-binding protein pos-1 (Caenorhabditis elegans, UniProt G5EF15); assay: disruptors of C. elegans POS-1 RNA interaction – biochemical, fluorescence polarization, dose response (AID 1964);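 note: purified POS-1 fused to maltose binding protein made in E. coli; potency of compounds blocking POS-1 binding to fluorescent RNA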
T4 sequence (G5EF15 whole entry): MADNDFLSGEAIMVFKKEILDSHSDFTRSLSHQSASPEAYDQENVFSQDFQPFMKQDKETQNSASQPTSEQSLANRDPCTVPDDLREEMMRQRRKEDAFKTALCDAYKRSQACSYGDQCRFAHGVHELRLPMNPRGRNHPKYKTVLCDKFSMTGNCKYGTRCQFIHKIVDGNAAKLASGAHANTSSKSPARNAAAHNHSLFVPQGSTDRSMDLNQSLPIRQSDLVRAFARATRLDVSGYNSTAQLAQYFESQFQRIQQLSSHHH

[8] = molecular target: T5, Zinc finger protein mex-5 (Caenorhabditis elegans, UniProt Q9XUB2); assay: potency of MEX-5 RNA-binding blockers – biochemical, C. elegans, fluorescence polarization, dose response (AID 1960)
T5 sequence (Q9XUB2 whole entry): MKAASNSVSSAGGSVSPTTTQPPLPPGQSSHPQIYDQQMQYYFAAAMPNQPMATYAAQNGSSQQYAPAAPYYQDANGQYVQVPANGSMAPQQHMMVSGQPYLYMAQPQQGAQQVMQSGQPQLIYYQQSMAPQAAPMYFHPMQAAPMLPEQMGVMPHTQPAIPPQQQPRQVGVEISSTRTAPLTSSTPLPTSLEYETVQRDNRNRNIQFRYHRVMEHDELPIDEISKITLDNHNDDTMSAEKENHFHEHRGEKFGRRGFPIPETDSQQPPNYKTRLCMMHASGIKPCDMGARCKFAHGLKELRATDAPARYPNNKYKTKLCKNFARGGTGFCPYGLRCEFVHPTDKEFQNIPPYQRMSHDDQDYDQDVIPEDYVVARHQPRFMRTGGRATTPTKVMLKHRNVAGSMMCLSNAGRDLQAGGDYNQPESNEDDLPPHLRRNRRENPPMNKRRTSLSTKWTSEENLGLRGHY

[9] = Trypanosoma cruzi growth suppression in host cells – NIH3T3 host cells, beta-gal luminescence, confirmation (AID 2044); format: functional, cell-based;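 note: intracellular parasites grown in NIH/3T3 mouse fibroblasts as host cells; luminescent beta-galactosidase reporter signal from transgenic T. cruzi replicating inside host cells; inhibitors lower the luminescence signal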
[10] = HIV-1 AD8 envelope cell-cell fusion blockers – cherry-pick, dose response (AID 652062); format: functional, cell-based;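 note: luciferase signal from cell-cell fusion driven by HIV-1 clade B AD8 Env; potency is for inhibitors of fusion seen as a drop in luminescence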
[11] = NIH3T3 cell viability loss – ATP luminescence, mouse fibroblasts, counter-screen, dose response (AID 2010); format: functional, cell-based;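 note: cells exposed to compound for about 90 hours before reading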
[12] = off-target signal loss in HeLa-CEM21 co-culture – HeLa F-luc CTL cells, cherry-picked, counter-screen for HIV-1 Env fusion inhibitor project, dose response (AID 652040); format: functional, cell-based;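 note: potency for signal decrease marking cytotoxic or nonspecific inhibition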
Fatty acid synthase [13] = molecular target: T6, Fatty acid synthase (Homo sapiens, UniProt P49327); assay: inhibition of human FAS-TE enzyme activity – biochemical, kinetic fluorescence intensity, dose response (AID 624326); format: functional;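 note: rate of fluorescence rise from hydrolysis of a fluorogenic O-methyl fluorescein ester substrate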
T6 sequence (P49327 whole entry, the tested form may be a part): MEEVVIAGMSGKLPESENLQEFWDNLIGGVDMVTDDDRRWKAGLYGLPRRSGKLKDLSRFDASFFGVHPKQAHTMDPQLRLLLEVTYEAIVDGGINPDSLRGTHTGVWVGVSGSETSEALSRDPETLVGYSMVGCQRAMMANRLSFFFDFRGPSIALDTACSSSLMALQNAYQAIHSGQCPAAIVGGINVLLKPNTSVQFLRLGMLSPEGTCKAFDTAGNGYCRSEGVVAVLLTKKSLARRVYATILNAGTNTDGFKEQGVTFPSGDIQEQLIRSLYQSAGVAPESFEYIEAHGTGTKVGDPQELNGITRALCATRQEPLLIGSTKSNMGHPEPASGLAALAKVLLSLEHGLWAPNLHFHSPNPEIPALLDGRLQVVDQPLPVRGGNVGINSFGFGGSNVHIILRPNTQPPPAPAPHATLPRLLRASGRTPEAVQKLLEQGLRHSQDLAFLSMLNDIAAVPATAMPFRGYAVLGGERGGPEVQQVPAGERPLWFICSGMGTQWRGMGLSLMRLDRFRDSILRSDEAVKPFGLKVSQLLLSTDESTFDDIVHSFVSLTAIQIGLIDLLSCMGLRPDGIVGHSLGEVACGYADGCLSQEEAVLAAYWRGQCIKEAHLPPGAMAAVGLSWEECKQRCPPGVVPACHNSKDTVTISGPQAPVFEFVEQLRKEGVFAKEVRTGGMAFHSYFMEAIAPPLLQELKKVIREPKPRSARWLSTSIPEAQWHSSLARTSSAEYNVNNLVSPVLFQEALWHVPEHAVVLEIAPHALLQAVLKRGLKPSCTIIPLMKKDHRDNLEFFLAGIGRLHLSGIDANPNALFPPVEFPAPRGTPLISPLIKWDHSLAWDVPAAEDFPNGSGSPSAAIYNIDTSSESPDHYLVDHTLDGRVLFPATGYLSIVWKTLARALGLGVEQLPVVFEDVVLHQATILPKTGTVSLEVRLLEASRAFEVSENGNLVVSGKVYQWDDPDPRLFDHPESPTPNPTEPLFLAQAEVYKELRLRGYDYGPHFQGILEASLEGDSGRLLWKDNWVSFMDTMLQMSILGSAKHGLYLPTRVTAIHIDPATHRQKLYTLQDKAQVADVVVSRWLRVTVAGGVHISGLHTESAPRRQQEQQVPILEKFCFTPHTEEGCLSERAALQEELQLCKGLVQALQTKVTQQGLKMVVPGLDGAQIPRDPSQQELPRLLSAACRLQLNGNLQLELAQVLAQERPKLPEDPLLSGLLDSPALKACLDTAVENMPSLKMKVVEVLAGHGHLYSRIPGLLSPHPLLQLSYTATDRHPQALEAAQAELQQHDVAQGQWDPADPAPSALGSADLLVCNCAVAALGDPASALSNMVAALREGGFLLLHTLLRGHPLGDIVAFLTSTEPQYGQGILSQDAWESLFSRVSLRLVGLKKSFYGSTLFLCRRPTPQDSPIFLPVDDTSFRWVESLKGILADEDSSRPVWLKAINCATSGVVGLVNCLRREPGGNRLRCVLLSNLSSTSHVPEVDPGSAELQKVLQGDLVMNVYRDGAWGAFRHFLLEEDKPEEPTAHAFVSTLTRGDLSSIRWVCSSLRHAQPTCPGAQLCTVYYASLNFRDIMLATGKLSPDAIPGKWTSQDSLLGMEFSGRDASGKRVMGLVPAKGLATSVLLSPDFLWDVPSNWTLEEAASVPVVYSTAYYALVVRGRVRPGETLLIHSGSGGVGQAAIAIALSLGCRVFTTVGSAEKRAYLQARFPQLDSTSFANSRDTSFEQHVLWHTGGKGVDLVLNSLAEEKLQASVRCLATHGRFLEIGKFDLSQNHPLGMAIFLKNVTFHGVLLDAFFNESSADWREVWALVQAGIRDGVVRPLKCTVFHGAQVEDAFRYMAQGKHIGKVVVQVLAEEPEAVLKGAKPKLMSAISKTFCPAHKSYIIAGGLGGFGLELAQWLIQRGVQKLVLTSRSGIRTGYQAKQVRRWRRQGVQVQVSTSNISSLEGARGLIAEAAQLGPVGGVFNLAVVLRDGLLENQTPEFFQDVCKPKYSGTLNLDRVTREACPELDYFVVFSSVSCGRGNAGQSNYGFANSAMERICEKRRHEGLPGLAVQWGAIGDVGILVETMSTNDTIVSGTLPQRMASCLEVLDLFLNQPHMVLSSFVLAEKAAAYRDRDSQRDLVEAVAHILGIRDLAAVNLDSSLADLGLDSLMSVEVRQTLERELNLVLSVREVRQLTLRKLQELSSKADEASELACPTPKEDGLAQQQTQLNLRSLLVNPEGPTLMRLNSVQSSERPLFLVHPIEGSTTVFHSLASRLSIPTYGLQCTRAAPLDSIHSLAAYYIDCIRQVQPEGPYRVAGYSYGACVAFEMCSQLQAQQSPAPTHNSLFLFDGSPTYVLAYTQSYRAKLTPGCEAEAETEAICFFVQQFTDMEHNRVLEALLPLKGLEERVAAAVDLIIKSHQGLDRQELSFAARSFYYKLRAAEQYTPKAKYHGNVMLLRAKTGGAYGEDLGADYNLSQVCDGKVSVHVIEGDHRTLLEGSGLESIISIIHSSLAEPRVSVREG

[14] = blockers of HIV-1 envelope-mediated cell-cell fusion – cherry-pick, dose response (AID 652057); format: functional, cell-based
Fatty acid synthase [15] = molecular target: T6, Fatty acid synthase; assay: inhibition of human FAS-TE enzyme activity – biochemical, endpoint fluorescence intensity, uHTS hits, dose response (AID 624327); format: functional;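 note: fluorescence from hydrolysis of an O-methyl fluorescein acyl ester substrate by the enzyme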

C[C@H]1CN([C@@H](C)CO)C(=O)c2cccc(NC(=O)Nc3cccc4ccccc34)c2O[C@H]1CN(C)Cc1ccc(C(=O)Nc2ccccc2N)cc1
AC50 [1]: 3.59 µM (active)

COc1ccc(C(=O)N2c3cc4c(cc3C(C)=CC2(C)C)OCO4)cc1
IC50 [2]: 6.36 µM (not active)

O=C(NCCc1ccccn1)C(F)(F)C(F)(F)C(F)(F)C(F)(F)C(F)(F)C(F)F
EC50 [3]: > 112 µM (not active)
EC50 [4]: > 112 µM (not active)
EC50 [5]: 4.73 µM (active)

Oc1ccc(C[C@@H]2CN=C(S)N2CCCCC2CCCCC2)cc1
IC50 [2]: 12.2 µM (not active)
AC50 [6]: 5.41 µM (active)

CCOC(=O)C(=CN=C(N)Nc1nc2ccccc2o1)C(=O)OCC
IC50 (Aminopeptidase N): 79.2 µM (active)

C[C@H]1CN([C@@H](C)CO)C(=O)Cc2cc(NC(=O)C3CC3)ccc2O[C@@H]1CN(C)Cc1ccc(C(=O)Nc2ccccc2N)cc1
AC50 [1]: 3.59 µM (active)

O=C(O)CN1C(=O)/C(=C\c2ccccc2OCc2ccccc2)SC1=S
IC50 (Genome polyprotein): 35.8 µM (active)

COc1ccc(C(=O)Nc2cc(C)ccc2NC(=O)COc2ccccc2)cc1
IC50 [2]: 1.51 µM (not active)

C[C@H]1CN([C@@H](C)CO)C(=O)Cc2cc(NC(=O)c3ccncc3)ccc2O[C@H]1CN(C)Cc1ccc(-c2ccccc2)cc1
AC50 [1]: 1.63 µM (active)

Cc1c(O)ccc(C(=O)CN2C(=O)c3ccccc3C2=O)c1O
IC50 [2]: 7.96 µM (not active)

CCN1CCN(c2ccc(S(=O)(=O)N3CCOCC3)cc2NC(=O)C(C)Oc2cccc(Cl)c2)CC1 (stereo not drawn)
EC50 [5]: 5.96 µM (active)

O=C1c2ccccc2C(=O)N1CCCCCc1nc(-c2ccccc2)no1
IC50 [2]: 3.34 µM (not active)

COc1ccc(C(CNC(=O)c2cccc(Br)c2)N2CCCC2)cc1 (stereo not drawn)
EC50 [5]: 1.68 µM (active)

C[C@@H]1CN([C@H](C)CO)C(=O)Cc2cc(NC(=O)Cc3ccccc3)ccc2O[C@@H]1CN(C)Cc1ccc(Cl)c(Cl)c1
AC50 [1]: 2.51 µM (active)

C[C@@H]1CN([C@H](C)CO)C(=O)Cc2cc(N(C)C)ccc2O[C@H]1CN(C)Cc1ccc2c(c1)OCO2
AC50 [1]: 6.22 µM (active)

Cc1ccc(S(=O)(=O)Oc2ccccc2C=C2C(=O)NC(=O)NC2=O)cc1
IC50 (Genome polyprotein): 36.8 µM (active)

COc1cc(OC)c(NS(=O)(=O)c2ccc(Cl)c(C(=O)OC(C)C(=O)N3CCCC3)c2)cc1Cl (stereo not drawn)
IC50 (Aminopeptidase N): 38.6 µM (active)

COc1ccc(C(CNC(=O)CN2C(=O)NC3(CCCC3)C2=O)N(C)C)cc1 (stereo not drawn)
EC50 [5]: 3.76 µM (active)

Cc1cc(/C=C2\C(=O)NC(=O)N(c3ccccc3)C2=O)c(C)n1-c1ccc(C(=O)O)c(Cl)c1
EC50 [7]: > 300 µM (not active)
EC50 [8]: > 300 µM (not active)
IC50 (Genome polyprotein): 63.7 µM (active)

CS(=O)(=O)N1CCc2cc(-c3csc(NC(=O)Cc4cccs4)n3)ccc21
EC50 [9]: 0.586 µM (active)
AC50 [10]: 9.65 µM (active)
EC50 [11]: > 60 µM (not active)
AC50 [12]: 27.1 µM (active)
IC50 (Fatty acid synthase [13]): 9.27 µM (active)
AC50 [14]: 27.1 µM (active)
IC50 (Fatty acid synthase [15]): 6.53 µM (active)

O=C(NC1CCCCC1)NC1CCN(C(=S)NCc2ccco2)CC1
IC50 (Aminopeptidase N): 66.3 µM (active)

Cn1c(NCc2ccco2)nc2c1c(=O)n(Cc1ccc(Cl)c(Cl)c1)c(=O)n2C
IC50 [2]: 4.09 µM (not active)

Cc1ccc(/C=N\NC(=O)C2COc3cc4ccccc4cc3O2)o1 (stereo not drawn)
EC50 [5]: 1.88 µM (active)

O=C(c1ccccc1F)N1CCN(Cc2cccc(Cl)c2)CC1
AC50 [10]: 3.83 µM (active)
AC50 [12]: > 70 µM (inactive)

CCOc1cc(/C=N/NC2=NC(=O)C(CC(=O)O)S2)ccc1OS(=O)(=O)c1ccc(C)cc1 (stereo not drawn)
IC50 (Aminopeptidase N): 47.8 µM (active)

COc1ccc(C2=Nn3c(nnc3-c3ccco3)SC2)cc1
IC50 [2]: 9.61 µM (not active)

CCOC(=O)NN1C(=O)c2ccccc2NC12CCCC2
IC50 (Aminopeptidase N): 32.6 µM (active)

CCCOc1ccc(C(F)(F)F)cc1NC(=O)CCc1c(C)noc1C
AC50 [10]: 51.4 µM (active)
AC50 [12]: 24.2 µM (active)
AC50 [14]: 11.6 µM (active)

O=C1c2ccc(Br)cc2C(=O)N1c1ccc(Cc2ccncc2)cc1
IC50 [2]: 4.86 µM (not active)
